From article PMC6199309, “A therapeutic approach to pantothenate kinase associated neurodegeneration” (Nature Communications, 2018)

Assays:
TRKC = molecular target: T1, TRKC (Homo sapiens, UniProt Q16288); test: KINOMEscan; assay type: binding; conditions: read-out: %Ctrl @ 10000nM
T1 construct: purchased DiscoverX KINOMEscan

EGFR(S752-I759del) = molecular target: T2, EGFR(S752-I759del) (Homo sapiens, UniProt P00533, DEL752-759); test: KINOMEscan; assay type: binding; conditions: read-out: %Ctrl @ 10000nM
T2 construct: purchased DiscoverX KINOMEscan
T2 sequence (P00533 with tags, fused parts or gaps DEL752-759 limits assumed): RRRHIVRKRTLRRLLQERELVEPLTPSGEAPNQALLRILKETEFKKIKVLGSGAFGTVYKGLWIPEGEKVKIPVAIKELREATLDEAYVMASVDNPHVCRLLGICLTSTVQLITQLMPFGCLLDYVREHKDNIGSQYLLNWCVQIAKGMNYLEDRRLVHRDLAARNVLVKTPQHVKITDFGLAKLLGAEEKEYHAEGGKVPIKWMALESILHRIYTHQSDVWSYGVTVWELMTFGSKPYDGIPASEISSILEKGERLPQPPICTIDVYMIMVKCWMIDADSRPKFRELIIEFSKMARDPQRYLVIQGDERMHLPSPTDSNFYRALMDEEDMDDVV

MAP3K3 = molecular target: T3, MAP3K3 (Homo sapiens, UniProt Q99759); test: KINOMEscan; assay type: binding; conditions: read-out: %Ctrl @ 10000nM
T3 construct: purchased DiscoverX KINOMEscan
T3 sequence (Q99759 whole entry): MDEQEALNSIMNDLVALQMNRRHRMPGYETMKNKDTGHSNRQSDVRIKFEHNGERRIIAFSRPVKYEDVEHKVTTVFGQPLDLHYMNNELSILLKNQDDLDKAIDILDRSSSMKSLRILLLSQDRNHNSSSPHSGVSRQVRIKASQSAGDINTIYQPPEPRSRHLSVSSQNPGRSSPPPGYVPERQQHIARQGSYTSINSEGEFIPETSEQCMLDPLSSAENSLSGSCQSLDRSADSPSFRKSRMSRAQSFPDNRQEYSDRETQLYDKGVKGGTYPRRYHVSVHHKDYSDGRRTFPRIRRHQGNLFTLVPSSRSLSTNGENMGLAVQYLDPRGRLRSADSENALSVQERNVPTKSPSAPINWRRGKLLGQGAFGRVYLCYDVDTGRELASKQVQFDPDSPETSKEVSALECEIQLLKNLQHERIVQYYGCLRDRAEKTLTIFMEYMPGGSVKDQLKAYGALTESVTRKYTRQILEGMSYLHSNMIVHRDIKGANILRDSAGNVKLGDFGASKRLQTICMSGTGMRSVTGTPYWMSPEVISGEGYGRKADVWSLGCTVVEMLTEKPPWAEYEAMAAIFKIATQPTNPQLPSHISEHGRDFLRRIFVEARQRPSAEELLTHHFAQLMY

FLT3(ITD) = assay type: binding, human
[1] = molecular target: T4, JAK2(JH1domain-catalytic) (Homo sapiens, UniProt O60674); test: KINOMEscan; assay type: binding; conditions: read-out: %Ctrl @ 10000nM
T4 construct: JAK2(JH1domain-catalytic); purchased DiscoverX KINOMEscan
T4 sequence (O60674 840-1132 limits assumed): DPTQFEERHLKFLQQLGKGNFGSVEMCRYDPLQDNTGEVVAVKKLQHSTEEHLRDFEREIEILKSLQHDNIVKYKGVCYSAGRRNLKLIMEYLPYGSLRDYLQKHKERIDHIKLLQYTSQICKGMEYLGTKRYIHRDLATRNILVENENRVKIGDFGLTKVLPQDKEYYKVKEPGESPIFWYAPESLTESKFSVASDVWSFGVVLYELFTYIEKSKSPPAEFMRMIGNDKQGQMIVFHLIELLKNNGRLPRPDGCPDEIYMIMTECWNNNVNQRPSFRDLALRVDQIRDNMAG

ABL1-nonphosphorylated = molecular target: T5, ABL1-nonphosphorylated (Homo sapiens, UniProt P00519); test: KINOMEscan; assay type: binding; conditions: read-out: %Ctrl @ 10000nM
T5 construct: purchased DiscoverX KINOMEscan
T5 sequence (P00519 whole entry): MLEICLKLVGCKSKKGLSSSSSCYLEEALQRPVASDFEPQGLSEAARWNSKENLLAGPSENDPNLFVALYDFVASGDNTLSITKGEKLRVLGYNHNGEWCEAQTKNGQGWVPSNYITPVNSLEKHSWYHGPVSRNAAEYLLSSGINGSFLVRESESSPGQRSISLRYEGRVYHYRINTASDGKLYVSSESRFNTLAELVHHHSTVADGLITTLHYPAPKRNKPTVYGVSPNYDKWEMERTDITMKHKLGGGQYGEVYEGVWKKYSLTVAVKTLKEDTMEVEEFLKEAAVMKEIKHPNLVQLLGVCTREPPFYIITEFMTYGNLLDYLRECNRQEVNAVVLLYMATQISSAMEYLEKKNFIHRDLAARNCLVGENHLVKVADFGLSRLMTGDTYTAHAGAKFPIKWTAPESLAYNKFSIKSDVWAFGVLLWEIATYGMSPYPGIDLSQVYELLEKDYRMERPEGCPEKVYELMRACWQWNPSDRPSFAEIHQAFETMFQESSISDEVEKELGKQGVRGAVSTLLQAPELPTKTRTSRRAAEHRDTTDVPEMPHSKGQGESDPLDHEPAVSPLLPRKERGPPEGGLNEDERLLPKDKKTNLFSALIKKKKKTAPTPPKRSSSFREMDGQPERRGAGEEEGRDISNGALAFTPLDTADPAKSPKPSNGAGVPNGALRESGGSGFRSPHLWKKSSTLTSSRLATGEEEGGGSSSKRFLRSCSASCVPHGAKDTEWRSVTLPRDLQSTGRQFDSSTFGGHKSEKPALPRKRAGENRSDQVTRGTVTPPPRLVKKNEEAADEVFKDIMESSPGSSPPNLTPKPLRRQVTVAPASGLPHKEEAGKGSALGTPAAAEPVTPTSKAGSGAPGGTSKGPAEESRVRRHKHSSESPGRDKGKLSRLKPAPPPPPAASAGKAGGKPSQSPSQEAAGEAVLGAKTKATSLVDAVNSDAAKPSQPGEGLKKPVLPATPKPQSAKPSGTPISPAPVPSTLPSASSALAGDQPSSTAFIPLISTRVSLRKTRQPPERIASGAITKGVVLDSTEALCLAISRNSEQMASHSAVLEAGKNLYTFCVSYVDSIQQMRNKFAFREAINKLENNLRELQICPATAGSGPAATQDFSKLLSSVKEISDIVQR

T1 sequence (Q16288 32-839): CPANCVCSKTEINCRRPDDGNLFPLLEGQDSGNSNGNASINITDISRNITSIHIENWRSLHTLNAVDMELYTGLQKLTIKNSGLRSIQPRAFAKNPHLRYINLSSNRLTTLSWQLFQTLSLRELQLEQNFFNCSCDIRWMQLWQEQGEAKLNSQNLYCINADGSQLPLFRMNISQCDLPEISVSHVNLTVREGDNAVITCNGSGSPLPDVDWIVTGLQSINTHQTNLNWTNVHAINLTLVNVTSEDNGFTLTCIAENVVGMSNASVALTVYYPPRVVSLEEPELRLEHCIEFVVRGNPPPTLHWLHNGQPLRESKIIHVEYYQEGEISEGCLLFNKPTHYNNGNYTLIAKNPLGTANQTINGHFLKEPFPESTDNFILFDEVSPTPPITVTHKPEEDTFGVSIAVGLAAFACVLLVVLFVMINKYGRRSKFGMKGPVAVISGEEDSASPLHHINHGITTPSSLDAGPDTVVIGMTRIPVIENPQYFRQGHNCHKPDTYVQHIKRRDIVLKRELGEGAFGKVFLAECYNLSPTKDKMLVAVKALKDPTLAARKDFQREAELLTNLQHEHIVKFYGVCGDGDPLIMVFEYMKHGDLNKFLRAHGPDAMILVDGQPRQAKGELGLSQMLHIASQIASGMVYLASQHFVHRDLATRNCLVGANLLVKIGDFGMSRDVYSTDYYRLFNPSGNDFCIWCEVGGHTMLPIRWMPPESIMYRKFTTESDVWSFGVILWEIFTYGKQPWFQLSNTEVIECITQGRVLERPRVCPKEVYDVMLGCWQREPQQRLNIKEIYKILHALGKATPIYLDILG

`CC(C)c1ccc(CC(=O)N2CCN(c3ccc(C#N)nn3)CC2)cc1` [PZ-2891, 6-(4-(2-(4-isopropylphenyl)acetyl)piperazin-1-yl)pyridazine-3-carbonitrile] showed a remaining binding at 10 µM (TRKC) of 100%, a remaining binding at 10 µM (EGFR(S752-I759del)) of 100% and a remaining binding at 10 µM (MAP3K3) of 65%. The “%Ctrl @ 10000nM” value (FLT3(ITD)) was 99%, the remaining binding at 10 µM [1] was 88% and the remaining binding at 10 µM (ABL1-nonphosphorylated) was 65%.
